Measurements reported in patent US20220218732A1, “Selective Inhibitors Of Protein Arginine Methyltransferase 5 (PRMT5)” (Prelude Therapeutics, Incorporated, priority 2019, published 2022).
Where a name gives a salt, the structure may show the parent alone. Read-outs that look alike come from different tables or passages of the source. One block for each compound: values may come before it.

Key:
[1] = Rat non-crossover PK study of Example 92; type: in vivo
Description: In a rat (SD, male, non-fasted) non-crossover PK study, Example 92 was dosed at 1 mg/kg (DMA: 20% HPBCD=5:95, solution) via i.v. administration (N=2) and 1 mg/kg (0.5% Na CMC+0.5% Tween80, solution) via oral gauge (p.o.) (N=2).

PRMT5/MEP50 complex = PRMT5/MEP50 complex (Homo sapiens, UniProt O14744); assay: Biochemical assay: PRMT5/MEP50 methylation of histone H2A with 3H-SAM, filter plate scintillation
Description: Compounds were solubilized, and 3-fold diluted in 100% DMSO. […] Standard reactions were performed in a total volume of 50 μl in assay buffer, with histone H2A (5 μM final) as substrate. To this was added the PRMT5/MEP50 complex diluted to provide a final assay concentration of 5 nM and the compounds were allowed to preincubate for 15 to 20 minutes at room temperature. The reaction was initiated by adding S-[3H-methyl]-adenosyl-L-methionine (PerkinElmer) to final concentration of 1 μM. Following a 60 minutes incubation at 30° C., the reaction was stopped by adding 100 μL of 20% TCA. Each reaction was spotted onto filter plate (MultiScreen FB Filter Plate, Millipore), and washed 5 times with PBS buffer, Scintillation fluid was added to the filter plate and read in a scintillation counter. IC50 values were determined by fitting the data to the standard 4 parameters with Hill Slope using GraphPad Prism software.

[2] = Rat non-crossover cassette PK study of Example 36; type: in vivo; details: rat SD male non-fasted, 2 mg/kg p.o.
Description: In a rat (SD, male, non-fasted) non-crossover cassette PK study, Example 36 was dosed at 0.25 mg/kg via i.v. administration (N=3) and 2 mg/kg via oral gauge (p.o.) (N=3) with other 3 compounds.

[3] = system: Symmetric Di-Methyl Arginine (sDMA) marks in Granta-519 cell line; assay: Cellular assay: Western blot of sDMA (SmD3me2s) and H3R8me2s marks in Granta cells, 3 days, IC50; type: cell-based; details: Homo sapiens, 72 h, Table 7
[4] = system: Type II Collagen-Induced Arthritis (CIA) in female Lewis rats; assay: Rat type II collagen-induced arthritis (CIA) model; type: in vivo; details: 15 mg/kg PO QD
Description: Female Lewis rats were injected intradermally/subcutaneously (ID/SC) with porcine type II collagen to induce arthritis on Study Days 0 & 7. Rats were then dosed once daily (QD) on Study Days 0-24 (developing) or Days 6-24 (semi-established) by the oral (PO) route with Example 92 (15 mg/kg) or vehicle (0.5% Na CMC+0.5% Tween80, suspension). Rats were euthanized for necropsy on Study Day 25. Efficacy evaluation was based daily ankle diameter caliper measurements, terminal hind paw weights, and histopathology of ankles and knees.

[5] = developing mode (Days 0-24), P<0.001

Chain of PRMT5/MEP50 complex (O14744 whole entry, species assumed): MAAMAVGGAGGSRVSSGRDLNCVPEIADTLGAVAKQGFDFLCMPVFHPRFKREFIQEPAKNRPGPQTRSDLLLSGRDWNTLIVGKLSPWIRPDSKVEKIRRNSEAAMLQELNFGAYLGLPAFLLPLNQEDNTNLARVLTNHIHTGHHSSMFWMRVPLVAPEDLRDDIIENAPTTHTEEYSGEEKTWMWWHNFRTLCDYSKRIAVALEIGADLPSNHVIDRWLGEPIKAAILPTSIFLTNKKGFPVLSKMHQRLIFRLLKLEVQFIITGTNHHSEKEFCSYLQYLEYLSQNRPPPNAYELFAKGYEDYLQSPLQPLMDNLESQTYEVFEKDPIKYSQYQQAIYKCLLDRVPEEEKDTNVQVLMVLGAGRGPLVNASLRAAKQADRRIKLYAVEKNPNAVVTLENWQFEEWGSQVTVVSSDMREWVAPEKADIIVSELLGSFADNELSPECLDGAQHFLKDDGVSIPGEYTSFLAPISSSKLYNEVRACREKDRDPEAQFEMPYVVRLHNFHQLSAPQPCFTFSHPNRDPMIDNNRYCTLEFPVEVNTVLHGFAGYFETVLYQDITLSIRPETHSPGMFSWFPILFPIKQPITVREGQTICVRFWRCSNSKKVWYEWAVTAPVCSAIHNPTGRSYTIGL
Chain of PRMT5/MEP50 complex (Q9BQA1 whole entry partner, species assumed): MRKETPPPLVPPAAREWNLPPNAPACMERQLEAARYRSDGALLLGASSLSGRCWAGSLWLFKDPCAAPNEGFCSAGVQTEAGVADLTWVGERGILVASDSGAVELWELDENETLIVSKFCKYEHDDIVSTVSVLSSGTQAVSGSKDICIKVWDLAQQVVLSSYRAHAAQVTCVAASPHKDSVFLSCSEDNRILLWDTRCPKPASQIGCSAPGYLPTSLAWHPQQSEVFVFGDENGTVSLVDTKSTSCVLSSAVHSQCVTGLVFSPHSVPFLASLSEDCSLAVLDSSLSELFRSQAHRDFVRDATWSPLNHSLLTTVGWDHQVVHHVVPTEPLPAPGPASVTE

- metabolite in blood samples ([1]; rat, after dosing of Example 92): detected
- average of AUC0-int of metabolite ([1]; rat, metabolite after dosing of Example 92): 284 ng·kg·h/mL/mg
Compound: C[C@@](O)(c1ccc(Cl)c(Cl)c1)[C@H]1O[C@@H](n2cnc3c(N)ncnc32)[C@H](O)[C@@H]1O [Example 1-C, (2R,3R,4S,5S)-2-(6-amino-9H-purin-9-yl)-5-((R)-1-(3,4-dichlorophenyl)-1-hydroxyethyl)tetrahydrofuran-3,4-diol]

- IC50 (PRMT5/MEP50 complex; Table 9, compounds of Formula V and Formula VI, read-out: PRTMT5/MEP50 IC50): 0.037 µM
Compound: C[C@@H](c1ccc(Cl)cc1)[C@H]1O[C@@H](n2ccc3c(N)ncnc32)[C@H](O)[C@@H]1O [Example 5-C, (2R,3R,4S,5R)-2-(4-amino-7H-pyrrolo[2,3-d]pyrimidin-7-yl)-5-((S)-1-(4-chlorophenyl)ethyl)tetrahydrofuran-3,4-diol hydrochloride]

- average dose normalized AUC [2]: 1738 ng·kg·h/mL/mg
Compound: CO/N=c1/nc[nH]c2c1ccn2[C@@H]1O[C@H]([C@H](O)c2ccc(Cl)cc2)[C@@H](O)[C@H]1O [Example 36, (2R,3S,4R,5R)-2-[(R)-(4-chlorophenyl)-hydroxy-methyl]-5-(-4-methoxyimino-1H-pyrrolo[2,3-d]pyrimidin-7-yl]tetrahydrofuran-3,4-diol]

Compound: CO/N=c1\nc[nH]c2c1ccn2[C@@H]1O[C@H]([C@H](O)c2ccc(Cl)c(Cl)c2)[C@@H](O)[C@H]1O [Example 69, 7-((2R,3R,4S,5R)-5-((R)-(3,4-dichlorophenyl)(hydroxy)methyl)-3,4-dihydroxytetrahydrofuran-2-yl)-1,7-dihydro-4H-pyrrolo[2,3-d]pyrimidin-4-one O-methyl oxime hydrochloride]
- IC50 [3]: 0.028 µM

- IC50 [3]: 0.097 µM
- IC50 (PRMT5/MEP50 complex; Table 7, histone H2A substrate, 5 nM enzyme, read-out: PRMT5/MEP50 IC50): 0.0291 µM
Compound: CCO/N=c1\nc[nH]c2c1ccn2[C@@H]1OC([C@](C)(O)c2ccc(Cl)cc2)[C@@H](O)[C@H]1O (stereo partly drawn) [Example 83, 7-((2R,3R,4S)-5-((R)-1-(4-chlorophenyl)-1-hydroxyethyl)-3,4-dihydroxytetrahydrofuran-2-yl)-1,7-dihydro-4H-pyrrolo[2,3-d]pyrimidin-4-one O-ethyl oxime]

- average dose normalized AUC0-inf ([1]; rat SD male non-fasted, 1 mg/kg p.o.): 2184 ng·kg·h/mL/mg
Compound: CO/N=c1\[nH]cnc2c1ncn2[C@@H]1O[C@H]([C@](C)(O)c2ccc(Cl)c(Cl)c2)[C@@H](O)[C@H]1O [Example 92, (2S,3S,4R,5R)-2-[(1R)-1-(3,4-dichlorophenyl)-1-hydroxy-ethyl]-5-[(6Z)-6-methoxyimino-1H-purin-9-yl]tetrahydrofuran-3,4-diol]
- histopathology parameters in ankles and knees ([4]; both modes, versus vehicle controls): significantly inhibited all histopathology parameters
- reduction in ankle diameter [4, 5]: 63%
- reduction in hind paw weight [4, 5]: 67%
- reduction in hind paw weight ([4]; semi-established mode (Days 6-24), P<0.01): 51%
- reduction in ankle diameter ([4]; semi-established mode (Days 6-24), P<0.05): 34%
